Some test systems named below: A498; ACHN; CAKI-1; COLO 205; HCC 2998; HCT-116; HCT-15; HL-60; KM12; MCF7; MOLT-4; NCI-H522; OVCAR-3; RPMI-8226; RXF 393; SF-268; SK-MEL-5; SN12C; UACC-62; UO-31.
Holding throughout (test): growth of human tumour cells (NCI), 48 h

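Each compound was tested at five concentrations against cells in 96-well plates for 48 hours. Abbreviation: GI50, concentration required for 50% inhibition of growth.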 The source made the active and inactive calls. No stated cut-off is given here; in the data, active = GI50 up to about 1.1 µM and inactive = higher.

`CC(C)(CCCCC(C)(C)NC1=NCCO1)NC1=NCCO1`: the GI50 in the assay on A498, in the assay on ACHN, in the assay on CAKI-1, in the assay on COLO 205, in the assay with HCC 2998 and in the assay on HCT-116 was > 10 µM (inactive) throughout. Further, the GI50 with HCT-15 was above 10 µM; in the assay on HL-60, > 10 µM (inactive); with KM12, > 10 µM (inactive); with MCF7 it was > 10 µM (inactive); with MOLT-4, > 10 µM (inactive); with NCI-H522, > 10 µM (inactive). For the same molecule, the GI50 with OVCAR-3, in the assay on RPMI-8226, with RXF 393, in the assay with SF-268, in the assay on SK-MEL-5 and in the assay with SN12C was > 10 µM (inactive) in each case. Further, the GI50 in the assay with UACC-62 and with UO-31 was > 10 µM (inactive) throughout.

The values above are taken from ChEMBL document CHEMBL1201862, “PubChem BioAssay data set” (2004).
